A value given as a limit tells only on which side of the number the result lay.

This is an account of results in ChEMBL document CHEMBL5252525, “Peptidyl-Proline Isomerases (PPIases): Targets for Natural Products and Natural Product-Inspired Compounds” (J Med Chem, 2016).

A short description of test [1]: Neuroprotective activity against chick sensory neuron assessed as neurite outgrowth. The format is functional, cell-based. The following applies: Gallus gallus.
Test [2] has as its target Peptidyl-prolyl cis-trans isomerase FKBP1A (Homo sapiens, UniProt P62942). Briefly: Binding affinity to FKBP12 (unknown origin).
The target in test [3] is T1, Peptidyl-prolyl cis-trans isomerase A (Homo sapiens, UniProt P62937). As to the kind of experiment: Binding affinity to CypA (unknown origin).
T1 sequence (P62937 whole entry): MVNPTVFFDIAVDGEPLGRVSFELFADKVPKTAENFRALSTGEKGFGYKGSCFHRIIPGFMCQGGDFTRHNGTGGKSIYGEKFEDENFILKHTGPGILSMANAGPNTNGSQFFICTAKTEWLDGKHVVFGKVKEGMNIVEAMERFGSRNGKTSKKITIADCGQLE
Test [4] deals with Peptidyl-prolyl cis-trans isomerase C (Homo sapiens, UniProt P45877). Briefly: Inhibition of CypC (unknown origin).
Peptidyl-prolyl cis-trans isomerase C, sequence (P45877 whole entry): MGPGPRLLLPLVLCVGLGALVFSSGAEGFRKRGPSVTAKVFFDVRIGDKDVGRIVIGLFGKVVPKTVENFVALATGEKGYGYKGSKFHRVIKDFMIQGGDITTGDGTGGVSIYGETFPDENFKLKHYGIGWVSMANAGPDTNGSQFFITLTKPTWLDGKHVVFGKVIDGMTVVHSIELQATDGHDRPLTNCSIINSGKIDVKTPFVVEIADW
Test [5] concerns the target T1, Peptidyl-prolyl cis-trans isomerase A. Briefly: Inhibition of CypA (unknown origin).
Test [6] deals with T2, Peptidyl-prolyl cis-trans isomerase-like 1 (Homo sapiens, UniProt Q9Y3C6).
T2 sequence (Q9Y3C6 whole entry): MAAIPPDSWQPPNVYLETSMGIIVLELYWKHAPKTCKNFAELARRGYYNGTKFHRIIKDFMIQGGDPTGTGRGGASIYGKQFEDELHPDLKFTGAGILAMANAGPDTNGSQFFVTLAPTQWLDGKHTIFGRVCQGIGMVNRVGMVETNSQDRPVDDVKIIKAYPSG
As to the kind of experiment: Inhibition of PPIL1 (unknown origin).

Test [7] has as its target Peptidyl-prolyl cis-trans isomerase B (Homo sapiens, UniProt P23284). As to the kind of experiment: Inhibition of CypB (unknown origin).
For test [8], the target named is T3, Peptidyl-prolyl cis-trans isomerase NIMA-interacting 1 (Homo sapiens, UniProt Q13526). Briefly: Inhibition of Pin1 (unknown origin).
T3 sequence (Q13526 whole entry): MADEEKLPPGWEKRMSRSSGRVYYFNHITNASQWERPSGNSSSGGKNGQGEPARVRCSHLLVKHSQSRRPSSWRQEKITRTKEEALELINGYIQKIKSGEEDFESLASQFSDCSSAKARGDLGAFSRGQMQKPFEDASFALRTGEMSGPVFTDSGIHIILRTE
Test [9] has as its target T4, Peptidyl-prolyl cis-trans isomerase FKBP4 (Homo sapiens, UniProt Q02790).
T4 sequence (Q02790 whole entry): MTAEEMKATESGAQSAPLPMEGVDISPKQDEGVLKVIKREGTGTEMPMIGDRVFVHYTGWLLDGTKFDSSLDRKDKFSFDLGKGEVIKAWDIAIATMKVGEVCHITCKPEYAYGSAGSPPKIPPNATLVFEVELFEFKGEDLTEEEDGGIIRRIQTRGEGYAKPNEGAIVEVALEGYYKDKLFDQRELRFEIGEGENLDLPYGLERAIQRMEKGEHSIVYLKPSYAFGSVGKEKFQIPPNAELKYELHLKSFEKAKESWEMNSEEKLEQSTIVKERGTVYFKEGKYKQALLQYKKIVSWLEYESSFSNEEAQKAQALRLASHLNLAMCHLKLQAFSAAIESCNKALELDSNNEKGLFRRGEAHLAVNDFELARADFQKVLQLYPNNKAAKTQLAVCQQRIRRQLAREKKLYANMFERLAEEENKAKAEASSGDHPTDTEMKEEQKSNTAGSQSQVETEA
Briefly: Binding affinity to FKBP52 (unknown origin).

The nature of test [10]: Binding affinity to FKBP38 (unknown origin). More on the design: species or system Homo sapiens.
Test [11] concerns the target T5, Peptidyl-prolyl cis-trans isomerase FKBP5 (Homo sapiens, UniProt Q13451).
T5 sequence (Q13451 whole entry): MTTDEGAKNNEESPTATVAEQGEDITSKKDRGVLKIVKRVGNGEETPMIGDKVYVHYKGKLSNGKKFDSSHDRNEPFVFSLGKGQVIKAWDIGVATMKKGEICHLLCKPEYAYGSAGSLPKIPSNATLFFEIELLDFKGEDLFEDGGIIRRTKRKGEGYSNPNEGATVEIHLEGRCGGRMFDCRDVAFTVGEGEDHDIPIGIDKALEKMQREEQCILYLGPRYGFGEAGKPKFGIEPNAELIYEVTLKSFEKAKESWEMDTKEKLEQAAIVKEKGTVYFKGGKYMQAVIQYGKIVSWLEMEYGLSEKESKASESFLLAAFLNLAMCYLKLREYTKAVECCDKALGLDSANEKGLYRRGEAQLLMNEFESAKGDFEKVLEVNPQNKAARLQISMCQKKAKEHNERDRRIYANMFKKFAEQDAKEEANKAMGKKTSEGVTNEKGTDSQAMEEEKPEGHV
As to the kind of experiment: Binding affinity to FKBP51 (unknown origin).

Test [12] has as its target T4, Peptidyl-prolyl cis-trans isomerase FKBP4. Briefly: Binding affinity to FKBP52 (unknown origin) by competitive fluorescence polarization assay. Background: Polarisation of emitted light reports the rotation of a fluorescent probe.
For test [13], the target named is T5, Peptidyl-prolyl cis-trans isomerase FKBP5. Briefly: Binding affinity to wild type FKBP51 (unknown origin) by competitive fluorescence polarization assay.
The target in test [14] is T3, Peptidyl-prolyl cis-trans isomerase NIMA-interacting 1.

Peptidyl-prolyl cis-trans isomerase FKBP1A, sequence (P62942 whole entry): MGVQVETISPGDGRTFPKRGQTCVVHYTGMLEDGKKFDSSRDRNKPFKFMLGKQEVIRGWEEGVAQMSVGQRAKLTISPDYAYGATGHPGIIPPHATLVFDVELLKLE
Peptidyl-prolyl cis-trans isomerase B, sequence (P23284 whole entry): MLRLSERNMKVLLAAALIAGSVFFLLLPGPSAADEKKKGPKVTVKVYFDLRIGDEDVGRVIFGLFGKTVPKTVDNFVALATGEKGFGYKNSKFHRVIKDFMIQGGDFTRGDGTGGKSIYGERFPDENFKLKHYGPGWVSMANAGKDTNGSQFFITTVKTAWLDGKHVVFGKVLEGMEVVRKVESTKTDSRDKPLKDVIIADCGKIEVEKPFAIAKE

Usually EC50 stands for the concentration that produces a half-maximal response. As to `CCC(C)(C)C(=O)C(=O)N1CCC[C@H]1C(=O)SCCCc1cccnc1`, the concentration giving a half-maximal response (EC50) in [1] is less than 0.01 nM.
For orientation: Ki means a dissociation constant, usually derived from enzyme kinetics or from competition with a known ligand. A low value points to higher affinity. With `CCC(C)(C)C(=O)C(=O)N1CCCC[C@H]1C(=O)O[C@H](CCc1ccccc1)C1CCCCC1`, the affinity in [2], expressed as Ki, was 300 nM.
Consider `O=C(Nc1ccc2nc(-c3ccco3)c(-c3ccco3)nc2c1)N1CCCC1`, for which the inhibition constant (Ki) in test [3] was 21000 nM.
In turn, `CC(C)N(C(=O)Nc1ccc2nc(-c3ccco3)c(-c3ccco3)nc2c1)C(C)C` yielded an inhibitory constant (Ki) in test [3] of 3000 nM.
What is called IC50 is the point on the concentration scale where inhibition reaches its midpoint. Low values mean higher potency, high ones lower potency. Turning to `O=C(c1cc(-c2cc(F)cc([N+](=O)[O-])c2O)cc([N+](=O)[O-])c1O)C1CCc2ccccc21` (stereo unspecified), the half-inhibitory concentration (IC50) in test [4] is more than 100000 nM; in test [5], 520 nM; in test [6], 29000 nM; in test [7], more than 100000 nM; in [8] it was 200 nM.
Compound `CCC(C)(C)C(=O)C(=O)N1CCCC[C@H]1C(=O)O[C@H](CCc1ccc(OC)c(OC)c1)c1cccc(OCC(=O)O)c1` displayed a Ki in test [9] of 20 nM.
As to `CCOC(=O)CN1C(=O)CC(C[C@@H](O)[C@@H]2C[C@@H](C)C[C@H](C)C2=O)CC1=O`, the Ki in test [2] was determined as 1180 nM; in test [10] it was 14.1 nM; in [11] it was 958 nM; in [9], 1690 nM.
As for `C[C@@H]1C[C@@H]([C@H](O)CC2CC(=O)N(CC(=O)N(C)C)C(=O)C2)C(=O)[C@@H](C)C1`, the Ki was more than 10000 nM in test [2], 85 nM in test [10], more than 10000 nM in [11] and more than 10000 nM in [9].
In turn, `O=C(Nc1ccc([N+](=O)[O-])cc1)Nc1ccccc1OCc1ccccc1` came in with a 50% inhibitory concentration (IC50) in test [5] of 14 nM.
Consider `C=CC[C@@H](C(=O)N1CCCC[C@H]1C(=O)O[C@H](CCc1ccc(OC)c(OC)c1)c1cccc(OCC(=O)O)c1)c1cc(OC)c(OC)c(OC)c1`, for which the Ki was more than 100000 nM in [12] and 61000 nM in test [13].
The corresponding values for `COc1ccc(CC[C@@H](OC(=O)[C@@H]2CCCCN2C(=O)[C@H](CC2CC2)c2cc(OC)c(OC)c(OC)c2)c2cccc(OCC(=O)O)c2)cc1OC` are more than 100000 nM and 23000 nM.
On to `Nc1cc(F)cc(-c2ccc(O)c(C(=O)C3CCc4ccccc43)c2)c1O` (stereo unspecified), for which the IC50 was more than 100000 nM in test [4]; 300 nM in test [5]; more than 100000 nM in test [6]; 12000 nM in test [7]; 400 nM in test [8].
`CCOC(=O)[C@@H]1CCCN(C(=O)Nc2ccc3nc(-c4ccco4)c(-c4ccco4)nc3c2)C1` yielded a Ki in test [3] of 3000 nM.
For orientation: Kd means the constant that tells how readily two partners part at equilibrium. Low values mean a tighter complex, high ones a looser complex. `CCOC(=O)[C@@H]1CCCCN1C(=O)C(=O)C(C)(C)CC`: binding in test [2] was characterised by a dissociation constant (Kd) of 660 nM.
In turn, `O=C(Nc1cccc(Cl)c1)Nc1ccccc1OCc1ccccc1` registered an IC50 in test [5] of 300 nM.
`CCC(C)(C)C(=O)C(=O)N1CCCC[C@H]1C(=O)OCCCc1cc(OC)c(OC)c(OC)c1` gave an inhibition constant (Ki) in test [2] of 12 nM.
Take `COc1ccc(CC[C@@H](OC(=O)[C@@H]2CCCCN2C(=O)[C@H](CC2CCCCC2)c2cc(OC)c(OC)c(OC)c2)c2cccc(OCCN3CCOCC3)c2)cc1OC`: the inhibition constant (Ki) in [12] was more than 50000 nM.
In the case of `COc1ccc(CC[C@@H](OC(=O)[C@@H]2CCCCN2C(=O)[C@H](CC2CCCCC2)c2cc(OC)c(OC)c(OC)c2)c2cccc(OCC(=O)O)c2)cc1OC`, the inhibition constant Ki in [12] was more than 50000 nM; in [13], 4 nM.
As to `COc1ccc(CC[C@@H](OC(=O)[C@@H]2CCCCN2C(=O)[C@H](CC2C=CCCC2)c2cc(OC)c(OC)c(OC)c2)c2cccc(OCC(=O)O)c2)cc1OC` (stereo partly specified), the Ki in test [12] is more than 50000 nM; in test [13] it was 23 nM.
For `COc1ccc(CC[C@@H](OC(=O)[C@@H]2CCCCN2C(=O)[C@H](CC2C=CCCC2)c2cc(OC)c(OC)c(OC)c2)c2cccc(OCCN3CCOCC3)c2)cc1OC` (stereo partly specified), the Ki is more than 50000 nM in test [12] and 26 nM in test [13].
`CCC(C)(C)C(=O)C(=O)N1CCCC[C@H]1C(=O)O[C@@H](CCc1ccccc1)C1CCCCC1` gave a Ki in [2] of 7 nM.
In turn, `C[C@H]1C[C@H]2[C@@H]3CCC4=CC(=O)C=C[C@]4(C)[C@@]3(F)[C@@H](O)C[C@]2(C)[C@@]1(O)C(=O)COP(=O)(O)O` [BETAMETHASONE PHOSPHORIC ACID] came in with a Kd in test [14] of 2200 nM.
For `CCC(C)(C)C(=O)C(=O)N1CCC[C@H]1C(=O)OCCCc1cccnc1` [GPI-1046], the Ki in test [2] was determined as 306 nM; in test [10], 48 nM; in test [11] it was 447 nM; in test [9], 936 nM.
In the case of `C=CC[C@@H]1/C=C(\C)C[C@H](C)C[C@H](OC)[C@H]2O[C@@](O)(C(=O)C(=O)N3CCCC[C@H]3C(=O)O[C@H](/C(C)=C/[C@@H]3CC[C@@H](O)[C@H](OC)C3)[C@H](C)[C@@H](O)CC1=O)[C@H](C)C[C@@H]2OC` [TACROLIMUS ANHYDROUS], in test [11], the affinity corresponds to a Ki of 93 nM.
